From patent publication US7923554B2, “HIV inhibiting 1,2,4-triazin-6-one derivatives” (Janssen Pharmaceutica N.V., priority 2004, dated 2011) come the findings set out here.

SMILES strings stand for the structures.

In one data set the test system is HIV-1.
Assay: not given
Conditions: not given
Turning to `N#Cc1ccc(Nc2nc(Nc3c(F)cc(I)cc3F)n[nH]c2=O)cc1` [Compound 1], the “pEC50 (-logEC50)” value was 9.5.
Still for that read-out and setting: for `Cc1cc(CCC#N)cc(C)c1Nc1n[nH]c(=O)c(Nc2ccc(C#N)cc2)n1` [Compound 5] the value was 9.6; for `Cc1cc(C)c(Sc2n[nH]c(=O)c(Nc3ccc(C#N)cc3)n2)c(C)c1` [Compound 6], 7.8.
In the case of `Cc1cc(C)c(S(=O)(=O)c2n[nH]c(=O)c(Nc3ccc(C#N)cc3)n2)c(C)c1` [Compound 7], the “pEC50 (-logEC50)” value was found to be 7.7.
With `Cn1nc(Nc2c(Br)cc(CCC#N)cc2Br)nc(Nc2ccc(C#N)cc2)c1=O` [Compound 8], the “pEC50 (-logEC50)” value was 10.0.
As to `N#CCCn1nc(Nc2c(F)cc(Br)cc2F)nc(Nc2ccc(C#N)cc2)c1=O` [Compound 11], the “pEC50 (-logEC50)” value is recorded as 9.1.
Same read-out and setting: with `CCn1nc(Nc2c(C)cc(CCC#N)cc2C)nc(Nc2ccc(C#N)cc2)c1=O` [Compound 15] the figure was 9.7; with `N#Cc1ccc(Nc2nc(Nc3c(F)cc(Br)cc3F)n[nH]c2=O)cc1` [Compound 30], 9.2; with `Cc1cc(CCC#N)cc(C)c1Nc1n[nH]c(=O)c(Nc2ccc(C#N)cc2)n1` [Compound 32], 8.9.
Regarding `N#CCCn1nc(Nc2c(F)cc(Br)cc2F)nc(Nc2ccc(C#N)cc2)c1=O` [Compound 34], the “pEC50 (-logEC50)” value was determined as 8.5.
On to `N#Cc1ccc(Nc2nc(Nc3c(F)cc(I)cc3F)n[nH]c2=O)cc1` [Compound 36], for which the “pEC50 (-logEC50)” value is reported as 9.9.
As for `Cc1cc(C)c(Sc2n[nH]c(=O)c(Nc3ccc(C#N)cc3)n2)c(C)c1` [Compound 41], the “pEC50 (-logEC50)” value amounted to 9.7.
Still for that read-out and setting: with `Cc1cc(CCC#N)cc(C)c1Nc1n[nH]c(=O)c(Nc2ccc(C#N)cc2)n1` [Compound 51] the figure was 9.6; with `Cc1cc(C)c(S(=O)(=O)c2n[nH]c(=O)c(Nc3ccc(C#N)cc3)n2)c(C)c1` [Compound 52], 8.8.
On the same count and under the same terms, for `Cn1nc(Nc2c(Br)cc(CCC#N)cc2Br)nc(Nc2ccc(C#N)cc2)c1=O` [Compound 55] the value was 9; for `COc1cc(CCC#N)c(Br)cc1Nc1n[nH]c(=O)c(Nc2ccc(C#N)cc2)n1` [Compound 67], 9.0.

System in the next data set: not given
Assay: not given
Conditions: not given
The melting point is the temperature, or range, at which the solid turns liquid. `Cc1cc(CCC#N)cc(C)c1Nc1nc(Nc2ccc(C#N)cc2)c(=O)n(CC#N)n1` showed a melting point of 243 to 246 °C.
On the same count and under the same terms, for `N#Cc1ccc(Nc2nc(Nc3c(F)cc(I)cc3F)n[nH]c2=O)cc1` [Compound 1] the value was 287 to 290 °C; for `N#CCCc1cc(Br)c(Nc2n[nH]c(=O)c(Nc3ccc(C#N)cc3)n2)c(Br)c1` [Compound 2], 339 to 340 °C.
Still for that read-out and setting: with `Cc1cc(CCC#N)cc(C)c1Oc1n[nH]c(=O)c(Nc2ccc(C#N)cc2)n1` [Compound 3] the figure was 351 to 352 °C; with `Cc1cc(C)c(S(=O)(=O)c2n[nH]c(=O)c(Nc3ccc(C#N)cc3)n2)c(C)c1` [Compound 7], 303 to 304 °C.
Still for that read-out and setting: for `Cc1cc(CCC#N)cc(C)c1Nc1nc(Nc2ccc(C#N)cc2)c(=O)n(C)n1` [Compound 9] the value was 317 to 320 °C; for `N#CCCn1nc(Nc2c(F)cc(Br)cc2F)nc(Nc2ccc(C#N)cc2)c1=O` [Compound 11], 246 to 247 °C; for `CCn1nc(Nc2c(C)cc(CCC#N)cc2C)nc(Nc2ccc(C#N)cc2)c1=O` [Compound 15], 243 to 245 °C.

The subject of another data set is HIV-1. Nature of the data set: microbe, parasite or virus in culture. To be noted: Human immunodeficiency virus 1, MT4, read-out: pEC50 (-logEC50) (converted).
Protocol: A rapid, sensitive and automated assay procedure was used for the in vitro evaluation of anti-HIV agents. […] In these cells, engineered with GFP (and an HIV-specific promotor), ongoing HIV-infection was measured fluorometrically. Cytotoxicity is measured in the same cells, but engineered with GFP under a constitutional promotor. The infection (or inhibition thereof) of HIV infected cells and the fluorescence of mock-infected cells is assessed by the fluorescent GFP signal generated by the two above mentioned cell lines.
Consider `N#CCCc1cc(Br)c(Nc2n[nH]c(=O)c(Nc3ccc(C#N)cc3)n2)c(Br)c1` [Compound 2], for which the EC50 is 0.1 nM.
The same measure, in the same setting: for `Cc1cc(CCC#N)cc(C)c1Oc1n[nH]c(=O)c(Nc2ccc(C#N)cc2)n1` [Compound 3] the value was 0.631 nM; for `Cc1cc(/C=C/C#N)cc(C)c1Nc1n[nH]c(=O)c(Nc2ccc(C#N)cc2)n1` [Compound 4], 0.631 nM; for `Cc1cc(CCC#N)cc(C)c1Nc1nc(Nc2ccc(C#N)cc2)c(=O)n(C)n1` [Compound 9], 0.501 nM.
For `N#Cc1ccc(Nc2nc(Nc3c(F)cc(Br)cc3F)n[nH]c2=O)cc1` [Compound 10], the EC50 is 0.316 nM.
For `Cc1cc(CCC#N)cc(C)c1Nc1nc(Nc2ccc(C#N)cc2)c(=O)n(CCO)n1` [Compound 14], the EC50 is 0.316 nM.
Same read-out and setting: with `Cc1cc(C)c(Nc2nc(Nc3ccc(C#N)cc3)n[nH]c2=O)c(C)c1` [Compound 16] the figure was 1 nM; with `Cn1nc(Nc2c(Cl)cc(CCC#N)cc2Cl)nc(Nc2ccc(C#N)cc2)c1=O` [Compound 17], 1 nM.
Same read-out and setting: with `Cc1cc(C)c(Nc2nc(Nc3ccc(C#N)cc3)nn(C)c2=O)c(C)c1` [Compound 18] the figure was 12.6 nM; with `N#CCCc1cc(Cl)c(Nc2n[nH]c(=O)c(Nc3ccc(C#N)cc3)n2)c(Br)c1` [Compound 19], 6.31 nM; with `Cc1cc(C)c(Sc2nc(Nc3ccc(C#N)cc3)n[nH]c2=O)c(C)c1` [Compound 20], 0.631 nM.
Consider `Cn1nc(Nc2c(Cl)cc(CCC#N)cc2Br)nc(Nc2ccc(C#N)cc2)c1=O` [Compound 21], for which the EC50 was 1 nM.
For the compound `Cc1cc(C)c(Sc2nc(Nc3ccc(C#N)cc3)nn(C)c2=O)c(C)c1` [Compound 22], the EC50 is 15.8 nM.
Same read-out and setting: for `Cc1cc(C)c(Nc2n[nH]c(=O)c(Nc3ccc(C#N)cc3)n2)c(C)c1` [Compound 23] the value was 0.794 nM.
The same measure, in the same setting: with `N#C/C=C/c1cc(Cl)c(Nc2n[nH]c(=O)c(Nc3ccc(C#N)cc3)n2)c(Cl)c1` [Compound 24] the figure was 0.631 nM.
Turning to `N#C/C=C/c1cc(Cl)c(Nc2n[nH]c(=O)c(Nc3ccc(C#N)cc3)n2)c(Br)c1` [Compound 25], the EC50 is 0.631 nM.
The same measure, in the same setting: for `N#C/C=C/c1cc(Br)c(Nc2n[nH]c(=O)c(Nc3ccc(C#N)cc3)n2)c(Br)c1` [Compound 26] the value was 0.631 nM; for `Cc1cc(/C=C/C#N)cc(C)c1Nc1nc(Nc2ccc(C#N)cc2)n[nH]c1=O` [Compound 27], 0.2 nM; for `Cc1cc(/C=C/C#N)cc(C)c1Nc1nc(Nc2ccc(C#N)cc2)nn(C)c1=O` [Compound 28], 3.98 nM.
The same measure, in the same setting: for `COc1cc(/C=C/C#N)cc(C)c1Nc1n[nH]c(=O)c(Nc2ccc(C#N)cc2)n1` [Compound 29] the value was 316 nM; for `Cc1cc(CCC#N)cc(C)c1Nc1nc(Nc2ccc(C#N)cc2)c(=O)n(CC#N)n1` [Compound 31], 0.316 nM.
Same read-out and setting: with `Cc1cc(CCC#N)cc(C)c1Nc1nc(Nc2ccc(C#N)cc2)c(=O)n(CC(N)=O)n1` [Compound 33] the figure was 0.631 nM; with `COc1cc(C)c(Nc2nc(Nc3ccc(C#N)cc3)c(=O)n(C)n2)c(C)c1` [Compound 35], 10 nM.
With `CCn1nc(Nc2c(C)cc(CCC#N)cc2C)nc(Nc2ccc(C#N)cc2)c1=O` [Compound 37], the EC50 is 0.126 nM.
The same measure, in the same setting: for `N#C/C=C/c1cc(F)c(Nc2n[nH]c(=O)c(Nc3ccc(C#N)cc3)n2)c(F)c1` [Compound 38] the value was 0.126 nM.
The same measure, in the same setting: with `COc1cc(CCC#N)cc(C)c1Nc1n[nH]c(=O)c(Nc2ccc(C#N)cc2)n1` [Compound 39] the figure was 0.1 nM.
On the same count and under the same terms, for `CCn1nc(Nc2c(C)cc(CCC#N)cc2OC)nc(Nc2ccc(C#N)cc2)c1=O` [Compound 40] the value was 0.316 nM; for `COc1cc(/C=C/C#N)cc(C)c1Nc1nc(Nc2ccc(C#N)cc2)c(=O)n(C)n1` [Compound 42], 0.398 nM.
For `Cc1cc(C)c(Sc2nc(Nc3ccc(C#N)cc3)c(=O)n(C)n2)c(C)c1` [Compound 43], the EC50 is 0.316 nM.
As for `Cc1cc(C#N)cc(C)c1Nc1nc(Nc2ccc(C#N)cc2)c(=O)n(C)n1` [Compound 46], the EC50 is 0.251 nM.
The same measure, in the same setting: with `COc1cc(CCC#N)cc(C)c1Nc1nc(Nc2ccc(C#N)cc2)c(=O)n(CCO)n1` [Compound 47] the figure was 0.794 nM.
The same measure, in the same setting: with `Cc1cc(C#N)cc(C)c1Oc1n[nH]c(=O)c(Nc2ccc(C#N)cc2)n1` [Compound 48] the figure was 0.398 nM; with `N#CCCc1cc(Br)c(Nc2n[nH]c(=O)c(Nc3ccc(C#N)cc3Br)n2)c(Br)c1` [Compound 49], 0.316 nM; with `Cc1cc(C#N)cc(C)c1Oc1nc(Nc2ccc(C#N)cc2)c(=O)n(C)n1` [Compound 50], 0.158 nM.
Still for that read-out and setting: for `Cc1cc(CCC#N)cc(C)c1Oc1nc(Nc2ccc(C#N)cc2)c(=O)n(CC#N)n1` [Compound 53] the value was 0.398 nM.
Regarding `CCn1nc(Nc2c(C)cc(/C=C/C#N)cc2C)nc(Nc2ccc(C#N)cc2)c1=O` [Compound 54], the EC50 was 75.9 nM.
Still for that read-out and setting: with `Cc1cc(CCC#N)cc(C)c1Oc1nc(Nc2ccc(C#N)cc2)c(=O)n(C)n1` [Compound 56] the figure was 0.631 nM; with `N#CCCc1cc(Cl)c(Nc2n[nH]c(=O)c(Nc3ccc(C#N)cc3)n2)c(Cl)c1` [Compound 58], 3.16 nM; with `Cc1cc(/C=C/C#N)cc(C)c1Oc1n[nH]c(=O)c(Nc2ccc(C#N)cc2)n1` [Compound 59], 1.26 nM.
As for `Cc1cc(/C=C/C#N)cc(C)c1Oc1nc(Nc2ccc(C#N)cc2)c(=O)n(C)n1` [Compound 60], the EC50 was 2.51 nM.
Still for that read-out and setting: with `Cc1cc(/C=C/C#N)cc(C)c1Oc1nc(Nc2ccc(C#N)cc2)c(=O)n(CC#N)n1` [Compound 61] the figure was 1.26 nM; with `Cc1cc(/C=C/C#N)cc(C)c1Oc1nc(Nc2ccc(C#N)cc2)c(=O)n(CCO)n1` [Compound 62], 0.316 nM; with `COc1cc(CCC#N)c(Br)cc1Nc1n[nH]c(=O)c(Nc2ccc(C#N)cc2)n1` [Compound 67], 1.51 nM.
On the same count and under the same terms, for `C/C(C#N)=C\c1cc(C)c(Nc2n[nH]c(=O)c(Nc3ccc(C#N)cc3)n2)c(C)c1` [Compound 68] the value was 1.2 nM; for `CCn1nc(Oc2c(C)cc(CCC#N)cc2C)nc(Nc2ccc(C#N)cc2)c1=O` [Compound 69], 0.891 nM; for `Cc1cc(CCC#N)cc(C)c1Oc1nc(Nc2ccc(C#N)cc2)c(=O)n(CCO)n1` [Compound 70], 0.794 nM.
On the same count and under the same terms, with `COc1cc(/C=C/C#N)cc(Cl)c1Nc1n[nH]c(=O)c(Nc2ccc(C#N)cc2)n1` [Compound 71] the figure was 0.794 nM; with `COc1cc(CCC#N)cc(Cl)c1Nc1nc(Nc2ccc(C#N)cc2)c(=O)n(C)n1` [Compound 72], 0.631 nM; with `CCn1nc(Nc2c(Cl)cc(CCC#N)cc2OC)nc(Nc2ccc(C#N)cc2)c1=O` [Compound 73], 0.631 nM.
Turning to `COc1cc(CCC#N)cc(Cl)c1Nc1nc(Nc2ccc(C#N)cc2)c(=O)n(CCO)n1` [Compound 74], the EC50 was 0.794 nM.
Still for that read-out and setting: with `COc1cc(CCC#N)cc(Cl)c1Nc1nc(Nc2ccc(C#N)cc2)c(=O)n(CC#N)n1` [Compound 75] the figure was 0.794 nM.
Same read-out and setting: with `C/C(=C\C#N)c1cc(C)c(Nc2n[nH]c(=O)c(Nc3ccc(C#N)cc3)n2)c(C)c1` [Compound 77] the figure was 0.794 nM.
Still for that read-out and setting: for `C/C(=C\C#N)c1cc(C)c(Nc2nc(Nc3ccc(C#N)cc3)c(=O)n(C)n2)c(C)c1` [Compound 78] the value was 0.794 nM.
